Measurements as given in PubChem BioAssay (NCI).
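1) Cells in 96-well plates. 2) Compound, 48 h, 5 concentrations. 3) Linear interpolation between surrounding doses. 4) Unreached endpoint = highest concentration. TGI denotes the concentration required for complete inhibition of growth.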

Legend:
Assay in all cases: NCI tumour cell line growth inhibition, 48 h
HCC-2998 colon = tested on: HCC-2998 colon
RXF 393 renal = tested on: RXF 393 renal
HT29 colon = tested on: HT29 colon
UO-31 renal = tested on: UO-31 renal
MDA-MB-231 breast = tested on: MDA-MB-231 breast
786-0 renal = tested on: 786-0 renal
HCT-116 colon = tested on: HCT-116 colon
UACC-257 melanoma = tested on: UACC-257 melanoma
SW-620 colon = tested on: SW-620 colon
SK-MEL-5 melanoma = tested on: SK-MEL-5 melanoma
SK-MEL-28 melanoma = tested on: SK-MEL-28 melanoma
HOP-92 NSCLC = tested on: HOP-92 NSCLC
U251 CNS = tested on: U251 CNS
ACHN renal = tested on: ACHN renal
HCT-15 colon = tested on: HCT-15 colon
NCI-H522 lung = tested on: NCI-H522 lung
TK-10 renal = tested on: TK-10 renal
SNB-75 CNS = tested on: SNB-75 CNS
UACC-62 melanoma = tested on: UACC-62 melanoma
SN12C renal = tested on: SN12C renal
NCI-H23 lung = tested on: NCI-H23 lung
SNB-19 CNS = tested on: SNB-19 CNS
A498 renal = tested on: A498 renal
MCF7 breast = tested on: MCF7 breast
NCI-H226 lung = tested on: NCI-H226 lung
EKVX NSCLC = tested on: EKVX NSCLC
A549 NSCLC = tested on: A549 NSCLC
OVCAR-8 ovarian = tested on: OVCAR-8 ovarian
MOLT-4 leukemia = tested on: MOLT-4 leukemia
HL-60(TB) leukemia = tested on: HL-60(TB) leukemia
DU-145 prostate = tested on: DU-145 prostate
COLO 205 colon = tested on: COLO 205 colon
MDA-MB-435 = tested on: MDA-MB-435
BT-549 breast = tested on: BT-549 breast
OVCAR-4 ovarian = tested on: OVCAR-4 ovarian
PC-3 prostate = tested on: PC-3 prostate
SF-539 CNS = tested on: SF-539 CNS
HS 578T breast = tested on: HS 578T breast
OVCAR-5 ovarian = tested on: OVCAR-5 ovarian
SK-MEL-2 melanoma = tested on: SK-MEL-2 melanoma
HOP-62 NSCLC = tested on: HOP-62 NSCLC
SK-OV-3 ovarian = tested on: SK-OV-3 ovarian
M14 melanoma = tested on: M14 melanoma
NCI/ADR-RES ovarian = tested on: NCI/ADR-RES ovarian
LOX IMVI melanoma = tested on: LOX IMVI melanoma
T-47D breast = tested on: T-47D breast
K-562 leukemia = tested on: K-562 leukemia
SF-268 CNS = tested on: SF-268 CNS
NCI-H460 lung = tested on: NCI-H460 lung
MALME-3M melanoma = tested on: MALME-3M melanoma

SMILES: CC1CCC(C(C)C2C(O)CC3C4CC=C5CC(O)CCC5(C)C4CCC32C)NC1 (stereo not given)
- TGI (HCC-2998 colon): 53.1 µM
- TGI (RXF 393 renal): > 100 µM
- TGI (HT29 colon): > 100 µM
- TGI (UO-31 renal): > 100 µM
- TGI (MDA-MB-231 breast): 81.6 µM
- TGI (786-0 renal): 89.9 µM
- TGI (HCT-116 colon): > 100 µM
- TGI (UACC-257 melanoma): > 100 µM
- TGI (SW-620 colon): > 100 µM
- TGI (SK-MEL-5 melanoma): > 100 µM
- TGI (SK-MEL-28 melanoma): > 100 µM
- TGI (HOP-92 NSCLC): 69.8 µM
- TGI (U251 CNS): 70.3 µM
- TGI (ACHN renal): > 100 µM
- TGI (HCT-15 colon): > 100 µM
- TGI (NCI-H522 lung): > 100 µM
- TGI (TK-10 renal): 30.4 µM
- TGI (SNB-75 CNS): > 100 µM
- TGI (UACC-62 melanoma): > 100 µM
- TGI (SN12C renal): 47.2 µM
- TGI (NCI-H23 lung): > 100 µM
- TGI (SNB-19 CNS): 74.5 µM
- TGI (A498 renal): > 100 µM
- TGI (MCF7 breast): > 100 µM
- TGI (NCI-H226 lung): > 100 µM
- TGI (EKVX NSCLC): > 100 µM
- TGI (A549 NSCLC): > 100 µM
- TGI (OVCAR-8 ovarian): 29.3 µM
- TGI (MOLT-4 leukemia): 35.8 µM
- TGI (HL-60(TB) leukemia): 52.8 µM
- TGI (DU-145 prostate): > 100 µM
- TGI (COLO 205 colon): > 100 µM
- TGI (MDA-MB-435): 65.8 µM
- TGI (BT-549 breast): > 100 µM
- TGI (OVCAR-4 ovarian): 53.4 µM
- TGI (PC-3 prostate): 95.4 µM
- TGI (SF-539 CNS): > 100 µM
- TGI (HS 578T breast): > 100 µM
- TGI (OVCAR-5 ovarian): > 100 µM
- TGI (SK-MEL-2 melanoma): > 100 µM
- TGI (HOP-62 NSCLC): 66 µM
- TGI (SK-OV-3 ovarian): > 100 µM
- TGI (M14 melanoma): > 100 µM
- TGI (NCI/ADR-RES ovarian): 58.2 µM
- TGI (LOX IMVI melanoma): 51 µM
- TGI (T-47D breast): > 100 µM
- TGI (K-562 leukemia): > 100 µM
- TGI (SF-268 CNS): > 100 µM
- TGI (NCI-H460 lung): > 100 µM
- TGI (MALME-3M melanoma): 55.2 µM
